This is an account of results in BindingDB's records for doi:10.1002/1098-2396(20001215)38:4 (University of North Texas, 2000).

The structures appear in SMILES notation.

A word on the Ki: it is a dissociation constant, usually derived from enzyme kinetics or from competition with a known ligand.

Chain of D(2) dopamine receptor (P61169 whole entry): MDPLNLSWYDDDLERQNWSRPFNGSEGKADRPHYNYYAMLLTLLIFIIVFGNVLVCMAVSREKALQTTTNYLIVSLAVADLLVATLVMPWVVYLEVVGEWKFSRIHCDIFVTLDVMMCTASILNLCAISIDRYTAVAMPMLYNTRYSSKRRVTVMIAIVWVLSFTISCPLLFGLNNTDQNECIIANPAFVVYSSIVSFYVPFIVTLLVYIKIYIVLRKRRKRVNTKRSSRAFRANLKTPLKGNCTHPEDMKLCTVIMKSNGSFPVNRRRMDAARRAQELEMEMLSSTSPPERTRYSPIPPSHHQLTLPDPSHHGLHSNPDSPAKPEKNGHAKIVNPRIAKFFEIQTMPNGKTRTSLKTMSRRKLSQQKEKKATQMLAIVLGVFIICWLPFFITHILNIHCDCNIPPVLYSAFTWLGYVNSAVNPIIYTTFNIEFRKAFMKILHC

The test addresses D(2) dopamine receptor (Rattus norvegicus, UniProt P61169).
With `Cc1ccc(N(CC2=NCCN2)c2cccc(O)c2)cc1` [SMR000059054], the inhibitory constant (Ki) is 1770 nM.

`CC(C)NCC(O)COc1cccc2[nH]ccc12` (stereo not drawn) [LB-46] gave an inhibition constant Ki of over 10000 nM.

In the case of `O=C(c1ccc(F)cc1)C1CCN(CCn2c(=O)[nH]c3ccccc3c2=O)CC1` [3-(2-{4-[(4-fluorophenyl)carbonyl]piperidin-1-yl}ethyl)-1,2,3,4-tetrahydroquinazoline-2,4-dione], the inhibition constant Ki is 2710 nM.
